Data on six molecules can be found in article PMC11096398, “Chemical and biophysical characterization of novel potassium channel blocker 3-fluoro-5-methylpyridin-4-amine” (Scientific Reports, 2024).

The structures appear in SMILES notation. Several values for one entry are separate records, joined by “and”; a condition that tells them apart may be missing. Equal values may be shown once. Read-outs that look alike come from different tables or passages of the source.

The conditions of series [1]: cited from earlier work.
For series [2] the following is noted: cited from earlier work. This is another data set of the same source.
Details of series [3]: method as in PMID 33090071. Conditions: monkeys, 2 h post injection ref 26; cited from earlier work.
On the set-up of series [4]: method as in PMID 38690718. Conditions: 35 min post-injection, cited from earlier work.
For series [5] the following is noted: cited from earlier work. The source holds these as a separate data set.
The nature of series [6]: pKa determination by titration with HCl (Gran plot). The format is physicochemical. Conditions: n = 4. How it is done: The pKa was determined using titration according to our previously described protocol. A 1 mg/mL solution of 5Me3F4AP was prepared, of which 5 ml was titrated with 0.01 M HCl solution beyond the equivalence point. After each incremental addition of titrant, the sample was stirred and the pH reading was taken with a pH meter. The Gran plot of the titration was analyzed to obtain the pKa (see the plot in Supporting Information, Fig. S3). […] The titration was repeated four times each for each compound.

Series [7] is described as follows: octanol-water partition coefficient (logD) at pH 7.4. In kind it is physicochemical. How it is done: The octanol–water partition coefficient (logD) at pH 7.4 was determined according to our previous reported protocol. Briefly, PBS (900 μL), 1-octanol (900 μL), and a 10 mg/ mL aqueous solution of each compound (2 μL) were added to a 2 mL HPLC vial. The compounds were partitioned between the layers via vortexing and centrifuged at 1000 g for 1 min to allow for phase separation. A 10 μL portion was taken from each layer (autoinjector was set up to draw volume at two different heights) and analyzed by HPLC. The relative concentration in each phase was determined by integrating the area under each peak and comparing the ratio of the areas from the octanol and aqueous layers. A calibration curve was performed to ensure that the concentrations detected were within the linear range of the detector (see Figs. S1 and S2 in Supporting Information). This procedure was repeated four times for each compound.

The nature of series [8]: parallel artificial membrane permeability assay-blood-brain barrier (BBB) kit. Conditions: PAMPA-BBB; for Papp at 18 h, 500 µM: PBS pH 7.2, 18 h, n = 3, read-out: permeability to an artificial brain membrane (Pe). The format is in vitro ADME. How it is done: The permeability rates of 5Me3F4AP and derivatives were determined using parallel artificial membrane permeability assay-blood–brain barrier (BBB) kit (BioAssay systems, Hayward, USA) following the manufacturer’s protocol. Initially, solutions of each test compound were prepared in DMSO at a concentration of 10 mM. These stock solutions along with the stock solutions of control compounds (high control: promazine hydrochloride, low control: diclofenac) were then diluted with PBS (pH = 7.2) to obtain the donor solutions with a final concentration of 500 μM. At the same time, 200 μM of equilibrium standards for each compound and a DMSO blank control solution were prepared.
In the experimental setup, 300 μL of PBS was added to the desired well of the acceptor plate, and 5 μL of BBB lipid solution in dodecane was added to membranes of the donor plate. Next, 200 μL of the donor solutions of each test compound and each permeability control were added to the duplicate wells of the donor plate. The donor plate was carefully placed on the acceptor plate and incubator for 18 h at room temperature. After incubation, UV absorption measurements were conducted using 100 μL of the resulting solutions from the acceptor plate and the equilibrium standards. UV absorption of the controls was measured by running a UV scan in the range of 200–500 nm. UV absorption of 5Me3F4AP and derivatives was measured using HPLC equipped with a UV detector and C18 column.
In general terms: PAMPA measures passive passage across an artificial lipid membrane.

Series [9] has as its target T1, Shaker voltage-gated potassium channel (Drosophila melanogaster, UniProt P08510). Description: cut-open voltage clamp electrophysiology of K+ currents in Xenopus laevis oocytes expressing Shaker. The format is cell-based, D. melanogaster. How it is done: Blocking potency of 5Me3F4AP was evaluated on the voltage-gated Shaker (homologous to mammalian Kv1.2) ion channel expressed in Xenopus laevis oocytes, as previously described. Briefly, each oocyte expressing the Shaker channel was voltage-clamped in a cut-open voltage clamp (COVC) station in order to elicit K^+ currents in response to the voltage stimulus protocol, which entailed steps of 50 ms from − 100 to 60 mV in increments of 10 mV. For COVC measurements, the external recording solution was composed (in mM) of 12 KOH, 2 Ca(OH)2, 105 NMDG-MES (N-methyl-D-glucamine)-methylsufonate, 20 HEPES (4-(2-hydroxyethyl)-1-piperazineethanesulfonic acid). The internal recording solution was composed of 120 KOH, 2 EGTA (ethylene glycol-bis(β-aminoethyl ether)-N,N,N,N-tetraacetic acid), and 20 HEPES. […] Each pH solution was adjusted with MES (2-(N-morpholino)ethanesulfonic acid). For measurements at pH = 9.1, HEPES was substituted by CHES (2-(cyclohexylamino)-ethanesulfonic acid). Each oocyte expressing the Shaker ion channel was voltage-clamped to record K^+ currents, first in the absence of 5Me3F4AP, and subsequently with the addition of 5Me3F4AP, from 0.0001 to 10 mM. Relative current (Irel) was quantified as the […] of the indicated concentration of 5Me3F4AP. Finally, K^+ currents were amplified with the oocyte clamp amplifier CA-1A (Dagan Corporation, Minneapolis, MN, USA) and digitized with the USB-1604-HS-2AO Multifunction Card (Measurement Computing, Norton, MA, USA). All systems were controlled with the GpatchMC64 program (department of anesthesiology, UCLA, Los Angeles, CA, USA) via a PC. Electrophysiology recordings were sampled at 100 kHz and filtered at 10 kHz.
Data analysis was performed as previously described. Briefly, the half-maximal inhibitory concentration of 5Me3F4AP (IC50) was determined by fitting the Irel curve to the Hill equation at each value of V and pH.
Mean values of data ± standard deviation (s.d.) are given or plotted and the number of experiments is denoted by n. Upper and lower limits of the 95% of confidence interval (CI95) are denoted as 10^logIC50+s.d and 10^logIC50-s.d , respectively.

The target of series [10] is CYP2E1 (Homo sapiens, UniProt P05181). The series is described as follows: competitive CYP2E1 inhibition assay (Vivid CYP2E1 screening kit). How it is done:
The relative metabolic stability towards CYP2E1 was assessed with the competitive CYP2E1 inhibition assay utilizing the life technologies™ vivid® CYP2E1 screening kit, as described in previous studies. In this assay, fluorescence emitted by the metabolic product of a specific CYP2E1 substrate included in the kit, was measured in the absence and presence of substrate competitors.
Afterwards, 50 µL master pre-mix 2× (40 nM) CYP2E1 BACULOSOMES® and 2× (0.6 units/mL) vivid® regeneration system in 1× reaction buffer) was added to each well. The plate was incubated for 10 min at room temperature to allow the compounds to interact with the CYP2E1 in the absence of enzyme turnover. Next, the reaction was initiated by adding 10 µL per well of 10× (100 μM) Vivid® substrate (2H-1-benzopyran-3-carbonitrile,7-(ethoxy-methoxy)-2-oxo-(9Cl)) and 10× (300 μM) Vivid® NADP^+ mixture. Immediately (in less than 2 min), the plate was transferred into the fluorescent plate reader and fluorescence was monitored over 60 min (reads in 1 min intervals) at 415 nm as excitation wavelength and 460 nm as emission wavelength. The obtained reads were plotted using GraphPad Prism 9.
A similar vivid® CYP2E1 assay was conducted as described above. […] The plate fluorescence was monitored over 60 min (reads in 1 min intervals) at 415 nm as excitation wavelength and 460 nm as emission wavelength. The reads at 60 min (recalculated by the linear trend line equation) of each concentration were used and fitted with GraphPad Prism9 dose-response-inhibition (concentration is log) curve fitting with weighting method (weighted by 1/Y^2) to calculate the IC50 values. A similar procedure was used for determining the IC50 of 3F4AP.

Series [11] has as its target T1, Shaker voltage-gated potassium channel. Particulars: cited from earlier work; for IC50: pH 7.4, Hermann equation, reported previously ref 35, read-out: IC50 (at V=0) ± s.d.; for δ ± s.d. (electric fraction): pH 7.4, reported previously ref 35.
Where [12] appears, read: final concentration 25 µM, 60 min kinetic measurement.
Where [13] appears, read: compound solution titrated with 0.01 M HCl.

Usually pKa stands for the pH at which an ionisable group is half protonated. Usually logD stands for the decadic logarithm of the distribution of all forms, ionised or not, between an organic phase and buffer at a given pH. One may read the IC50 as the midpoint of a concentration-inhibition curve.

T1 sequence (P08510 whole entry): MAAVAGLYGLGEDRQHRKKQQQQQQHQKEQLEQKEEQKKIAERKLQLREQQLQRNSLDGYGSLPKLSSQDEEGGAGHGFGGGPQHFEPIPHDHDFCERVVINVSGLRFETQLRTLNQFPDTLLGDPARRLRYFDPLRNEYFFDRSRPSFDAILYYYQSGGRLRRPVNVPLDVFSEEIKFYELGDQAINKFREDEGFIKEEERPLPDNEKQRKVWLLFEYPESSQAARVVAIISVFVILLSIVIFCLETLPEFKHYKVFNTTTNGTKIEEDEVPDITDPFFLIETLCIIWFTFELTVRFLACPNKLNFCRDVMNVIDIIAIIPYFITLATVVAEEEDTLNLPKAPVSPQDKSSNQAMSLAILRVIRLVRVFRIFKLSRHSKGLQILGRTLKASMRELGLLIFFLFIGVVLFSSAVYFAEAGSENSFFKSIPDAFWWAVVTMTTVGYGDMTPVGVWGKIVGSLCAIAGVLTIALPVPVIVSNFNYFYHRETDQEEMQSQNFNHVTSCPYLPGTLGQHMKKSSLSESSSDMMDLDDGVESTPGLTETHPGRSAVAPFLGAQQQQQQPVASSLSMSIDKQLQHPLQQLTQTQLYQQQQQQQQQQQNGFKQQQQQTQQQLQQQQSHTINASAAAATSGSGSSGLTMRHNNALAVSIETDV
Sequence of CYP2E1 (P05181 whole entry): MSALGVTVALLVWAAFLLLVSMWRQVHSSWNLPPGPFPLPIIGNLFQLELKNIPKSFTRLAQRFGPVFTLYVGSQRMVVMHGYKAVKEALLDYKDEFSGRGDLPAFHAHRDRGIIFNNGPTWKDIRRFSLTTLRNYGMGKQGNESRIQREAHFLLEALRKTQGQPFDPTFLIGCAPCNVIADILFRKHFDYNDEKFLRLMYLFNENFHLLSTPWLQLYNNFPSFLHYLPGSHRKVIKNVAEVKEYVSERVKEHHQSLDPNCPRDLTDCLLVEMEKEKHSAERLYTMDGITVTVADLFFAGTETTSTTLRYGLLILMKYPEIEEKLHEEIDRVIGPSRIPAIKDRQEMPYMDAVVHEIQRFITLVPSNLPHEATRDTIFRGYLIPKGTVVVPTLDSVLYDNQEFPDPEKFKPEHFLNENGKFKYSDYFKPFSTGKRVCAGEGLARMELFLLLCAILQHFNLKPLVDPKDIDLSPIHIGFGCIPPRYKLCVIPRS

For the molecule `Nc1ccncc1[18F]` [[^18F]3F4AP, [^18F]3-fluoro-4-aminopyridine], in series [1], the pKa is recorded as 7.65. The logD in [2] was 0.41. Further, the “plasma parent fraction (PPF)” value in series [3] is given as above 90%; in [4] (anesthetized mice (isoflurane), n = 10 ref 29), 74.8 ± 1.6; in series [4] (awake mice, n = 11 ref 29) it was 17.7 ± 1.7. In addition, in series [5] (humans, 30 min post injection ref 27), the “plasma parent fraction (PPF) remaining” value was below 50%.

In the case of `Cc1cncc(F)c1N` [5Me3F4AP, 3-fluoro-5-methylpyridin-4-amine], the pKa in series [6] worked out at 7.46 ± 0.01. In addition, the logD in [7] (1-octanol/PBS, pH 7.4, pH 7.4, n = 4) amounted to 0.664 ± 0.005. In [7] (pH 7.4, n = 4), the “logD (octanol/water partition coefficient)” value is listed as 0.66. For the same molecule, the “permeation rate relative to 3F4AP” value in series [8] is “approximately three times faster than 3F4AP”. Also, in [8], the Papp at 18 h, 500 µM worked out at 8.81 ± 1.83 ×10⁻⁶ cm/s. The “block of Shaker K+ currents” value in series [9] (1 mM, pH 6.4, 7.4 and 9.1) is recorded as “efficiently blocks the channels”. Also, the Hill parameter h result in series [9] (Hill fit at 40 mV, all experimental conditions) is listed as “≈ 1”. For the same molecule, the “change of IC50 when pH was increased to 9.1” value in [9] (IC50 at 40 mV, Hill equation) is given as “increased around three-fold”. The “δ ± s.d. (electric fraction)” value in series [9] (pH 6.4) was 0.39 ± 0.04; in [9] (pH 7.4), 0.40 ± 0.02; in series [9] (pH 9.1) it was 0.40 ± 0.04. Further, the IC50 in [9] (pH 6.4, Hermann equation, read-out: IC50 (at V=0) ± s.d.) was 118 ± 17 µM; in series [9] (pH 7.4, Hermann equation, read-out: IC50 (at V=0) ± s.d.), 161 ± 25 µM; in [9] (pH 9.1, Hermann equation, read-out: IC50 (at V=0) ± s.d.) it was 373 ± 84 µM. In addition, the “blocking potency compared with related compounds” value in [9] (pH 7.4, IC50 at 40 mV) was “very similar to that of 4AP and 3F4AP”. Besides, the “δ value (electric fraction)” value in series [9] (pH not specified) is recorded as around 0.4. Further, in series [10] (setting [12]), the “reduction in fluorogenic emission / reaction rate vs. blank” value was “reaction rate between 4AP and 3F4AP”. The IC50 at 60 min in series [10] (human, recombinant CYP2E1 BACULOSOMES (Vivid CYP2E1 screening kit), IC50 for CYP2E1 inhibition, reads at 60 min, three replicates) amounted to 36.2 ± 2.5 µM. Further, in series [10] (kinetic measurement), the “CYP2E1-mediated oxidation rate relative to 3F4AP” value is on record as “about two times slower than 3F4AP”.

`N[C@@H]1C[C@H]1c1ccccc1` (racemic) [tranylcypromine]: the “reduction in fluorogenic emission / reaction rate vs. blank” value in [10] is listed as “most pronounced reduction in fluorogenic emission”.

As to `Cc1cnccc1N` [3Me4AP, 3-methyl-4AP], the pKa in series [6] (setting [13]) is above 9. Also, the “change of IC50 when pH was increased to 9.1” value in [9] is reported as “three-fold”. In addition, the “δ ± s.d. (electric fraction)” value in [9] is reported as 0.28 ± 0.10; in [9] (pH 9.1) it was 0.47 ± 0.03; in series [11], 0.43 ± 0.10. The IC50 is 44 µM and 10 µM in [9] (IC50 (at V=0) ± s.d.); 21 ± 1 µM in series [11].

As to `Nc1ccncc1` [4AP, 4-aminopyridine], the figures for the pKa in series [6] (setting [13]) and in series [6] (solution of the compound titrated with 0.01 M HCl) were above 9 and 9.19, respectively. Moreover, the results for the “δ ± s.d. (electric fraction)” value in [9], in [9] (pH 9.1) and in series [11] were 0.41 ± 0.06, 0.41 ± 0.05 and 0.41 ± 0.08, respectively. Further, the “reduction in fluorogenic emission / reaction rate vs. blank” value in series [10] (setting [12]) is “minor reduction in fluorogenic emission”. The “parent fraction in plasma” value in series [5] (24 h post oral administration ref 42) is given as ~ 70%.

In turn, `Nc1ccncc1F` [3F4AP, 3-fluoro-4-aminopyridine] came in with a pKa in [6] of 7.37 ± 0.07. For the same molecule, the Papp at 18 h, 500 µM in series [8] was 3.11 ± 0.29 ×10⁻⁶ cm/s. In addition, the “change of IC50 when pH was increased to 9.1” value in series [9] is reported as “increased around three-fold”. Also, the “δ ± s.d. (electric fraction)” value was 0.41 ± 0.03 in series [9], 0.52 ± 0.02 in series [9] (pH 9.1) and 0.46 ± 0.10 in [11]. In addition, the IC50 in series [9] (IC50 (at V=0) ± s.d.) was 159 µM and 65 µM; in series [10] (human, IC50 for CYP2E1 inhibition, reads at 60 min, three replicates) it was 15.4 ± 5.1 µM; in series [11], 122 ± 4 µM. Besides, the “reduction in fluorogenic emission / reaction rate vs. blank” value in series [10] (setting [12]) is “substantial decrease in rate”.
